Assay results from patent US7485655B2, “2-Aminothiazole allosteric enhancers of A1 adenosine receptors” (University of Virginia Patent Foundation, priority 2002, dated 2009).

Assays:
[1] = test system: chicken chorioallantoic membrane (CAM); assay: CAM assay, drug applied daily on filter paper disc; assay type: in vivo; conditions: for angiogenic response in the CAM (vessel density at edge of disk): 100 nM doses, 100 μl daily for 7 days on filter paper disk
[2] = test system: chicken chorioallantoic membrane (CAM); assay: CAM assay, adenosine applied via Elvax pellets; assay type: in vivo; conditions: Elvax pellet with 3 mg adenosine, left in place seven days
Method: Fertile White Leghorn chicken eggs were obtained from Truslow Farms (Chesterfield, Mo.). Eggs were incubated at 37° for 7 days, then a 1.5 cm window was cut into each egg over the CAM. Pellets were applied to the CAMS and the windows closed with cellophane tape. Eggs were incubated until day 14 when the CAMS were fixed. […] The pellets were placed on the CAM where there were a few vessels present and were left in place for seven days. The CAMS then were fixed in 10% buffered formalin and vessels were counted under 20× magnification using a Nikon stereomicroscope. The quantitation of vascular number is presented as vascular density index VDI that was an adaptation of a method described by Harris-Hooker (Harris-Hooker et al., Neovascular Responses Induced by Cultured Aortic Endothelial Cells, J Cell. Phys., 114, 302-310, 1983). A plastic cover slip inscribed with 4, 5, 6, and 8 mm diameter concentric circles was centered over the adenosine pellet on the formalin-fixed CAM. The vascular density was judged by counting the numbers of the vessels which intersected the circles. This technique allowed counting of vessels down to 10-12 u in diameter. The positioning of the pellets on the CAM was randomized. […] Adenosine was delivered by other means as well.

human A3 receptor = target: T1, human A3 receptor (Homo sapiens, UniProt P0DMS8); conditions: cited from earlier work
T1 sequence (P0DMS8 1-318): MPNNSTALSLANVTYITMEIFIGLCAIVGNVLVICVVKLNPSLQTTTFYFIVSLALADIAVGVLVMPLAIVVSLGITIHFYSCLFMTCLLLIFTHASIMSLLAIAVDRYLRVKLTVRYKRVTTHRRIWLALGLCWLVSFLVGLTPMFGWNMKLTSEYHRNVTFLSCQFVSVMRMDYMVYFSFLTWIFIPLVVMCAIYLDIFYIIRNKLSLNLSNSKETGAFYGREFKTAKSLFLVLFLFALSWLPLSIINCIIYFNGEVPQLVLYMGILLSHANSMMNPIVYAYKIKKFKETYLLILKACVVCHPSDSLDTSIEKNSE

rat mesentery = assay: Rat mesentery angiogenesis, chronic intraperitoneal infusion by Alzet osmotic pump; assay type: in vivo; conditions: chronic infusion via Alzet pumps into the peritoneal cavity of a rat
Method: Drug application into rat mesentery using infusion pumps. Alzet osmotic pumps were filled with drug or vehicle to a volume of 200 μl. The abdominal cavities of anesthetized 150 g Sprague-Dawley rats were incised and pumps implanted into the intraperitoneal cavity. The pumps delivered the drug at 1.0 μl/hr. After one week mesenteric samples were taken between vascular arcades along the length of the small bowel. Specimens were fixed and stained using a BS:lectin stain.
The chronic infusion was an advantage because the model is not an ischemic one, so steady long term administration of the PD 81,723 may help to augment the effects of lower concentrations of endogenous adenosine.

CCNC(=O)[C@H]1O[C@@H](n2cnc3c(N)nc(NCCc4ccc(CCC(=O)O)cc4)nc32)[C@H](O)[C@@H]1O [CGS21680]
angiogenic response in the CAM (vessel density at edge of disk) [1]: No angiogenic response

Nc1ncnc2c1ncn2[C@@H]1O[C@H](CO)[C@@H](O)[C@H]1O [Adenosine]
angiogenesis in the windowed CAM model (vascular density index) [2]: stimulated angiogenesis

CNC(=O)[C@H]1O[C@@H](n2cnc3c(NCc4cccc(I)c4)ncnc32)[C@H](O)[C@@H]1O [m-MECA, N^6-iodobenzyl-5′-N-methyl-carboxamidoadenosine]
angiogenic response in the CAM (vessel density at edge of disk) [1]: positive angiogenic response

CC(C)N(C)c1nc2c(N[C@@H]3CC4CC3CC4O)ncnc2n1C (some centres unmarked) [WRC-0571]
block of C17-stimulated angiogenesis in the CAM ([1]; C17 plus WRC-0571): blocked | block of angiogenic effect of CPA in the CAM ([1]; CPA 100 nM with 1 μM WRC-0571): completely blocked | block of the effects of PD on angiogenesis in the CAM ([1]; PD plus WRC-0571): completely blocked | block of the effects of endogenous adenosine in the CAM ([1]; in vivo): blocked the effects of endogenous adenosine

CCOC(=O)C1=C(C)NC(c2ccccc2)=C(C(=O)OCc2ccccc2)C1C#Cc1ccccc1 (centres unmarked) [MRS1191]
selectivity for the human A3 over the A1 receptor (human A3 receptor): > 1300 fold

OC[C@H]1O[C@@H](n2cnc3c(NC4CCCC4)ncnc32)[C@H](O)[C@@H]1O [CPA, Cyclopentyladenosine]
stimulation of angiogenesis in the CAM at low dose ([1]; 20 nM CPA alone): did not stimulate angiogenesis | angiogenic response in the CAM (vessel density at edge of disk) [1]: positive angiogenic response

CCCn1c(=O)c2[nH]c(-c3ccc(OCC(=O)NCCN)cc3)nc2n(CCC)c1=O [XAC, xanthine amine congener]
effect on baseline angiogenesis in the CAM ([1]; nonselective antagonist alone, filter paper disk, four eggs): did not inhibit baseline angiogenesis

CCNC(=O)[C@H]1O[C@@H](n2cnc3c(N)ncnc32)[C@H](O)[C@@H]1O [NECA]
angiogenic response in the CAM (vessel density at edge of disk) [1]: positive angiogenic response

Cc1sc(N)c(C(=O)c2cccc(C(F)(F)F)c2)c1C [PD 81,723]
stimulation of angiogenesis in the CAM ([1]; 100 μM on filter paper disc, versus vehicle, no applied agonist): 10% | angiogenesis in mature mammalian animal model (rat mesentery): Stimulation of angiogenesis
